Reference: patent publication US20040072206A1, “Method for identifying modulators of transcription” (priority 2000, published 2004)
Positions of bridges follow the written chain, without caps; N, C: chain ends. Non-standard residues stand in square brackets, D forms with d. Residues, ends and D or L forms follow the SMILES beside them. *: point of attachment. Ileψ(thiazoline)Cys = CC[C@H](C)[C@H](N)C1=N[C@H](C(=O)*)CS1; dOrn = NCCC[C@@H](N)C(=O)O

Target: T1, B. subtilis RNAP (Bacillus subtilis, UniProt P37870+P37871)
T1 construct: endogenous in cells; host or cells: Bacillus subtilis strain PL37 (built from strain 168)
Experiment: Dual reporter assay in strain PL37: test reporter Pxyl-lacZ and ratio of control to test reporter (RES:MUG)
Type: cell-based
Settings: for Ratio of the control reporter (RES): test reporter (MUG): strain PL37, DMSO control […]
Method: 20 known antibiotics were tested at a range of concentrations to determine their effect on test and control reporters within the assay. […] Cultures of PL37 grown in PAB, were diluted to 0.05 A600 and then grown for 2 hours at 37° C. in PAB supplemented with 0.02 mM IPTG. Cells were pelleted and frozen. They were later resuspended and diluted in PAB supplemented with 0.02 mM IPTG and grown at 37° C. to early exponential phase. Cultures were then diluted to 0.05 A600 in PAB and added in 20 μl volumes to wells of microtitre plates containing 20 μl volumes of the antibiotics. Plates were incubated at 37° C. for two hours, and assay mix was added to detect reporter enzyme activity (see below).
Following the addition of 160 μl of assay mix (1.3×Z buffer containing 94 μg/ml lysozyme, 8.4 μg/ml 4-methylumbelliferyl-β-D-galactoside, 0.53 μg/ml resorufin-β-D-glucuronide and 0.05% Triton) to each well, the microtitre plate was incubated in the dark for 30 mini or 1 hour at room temperature. Fluorescence was read on a BMG FLUOstar Galaxy at excitation/emission 355/460 nm and 544/590 nm, respectively, with gains set at 5 and 25, respectively.

[1] = Dilution Number 11 (lowest concentration tested: 0.125, 0.016 or 0.0005 μg/ml depending on antibiotic)
[2] = Dilution Number 1 (highest concentration tested: 128, 16 or 0.5 μg/ml depending on antibiotic)

T1 sequence (P37871 whole entry): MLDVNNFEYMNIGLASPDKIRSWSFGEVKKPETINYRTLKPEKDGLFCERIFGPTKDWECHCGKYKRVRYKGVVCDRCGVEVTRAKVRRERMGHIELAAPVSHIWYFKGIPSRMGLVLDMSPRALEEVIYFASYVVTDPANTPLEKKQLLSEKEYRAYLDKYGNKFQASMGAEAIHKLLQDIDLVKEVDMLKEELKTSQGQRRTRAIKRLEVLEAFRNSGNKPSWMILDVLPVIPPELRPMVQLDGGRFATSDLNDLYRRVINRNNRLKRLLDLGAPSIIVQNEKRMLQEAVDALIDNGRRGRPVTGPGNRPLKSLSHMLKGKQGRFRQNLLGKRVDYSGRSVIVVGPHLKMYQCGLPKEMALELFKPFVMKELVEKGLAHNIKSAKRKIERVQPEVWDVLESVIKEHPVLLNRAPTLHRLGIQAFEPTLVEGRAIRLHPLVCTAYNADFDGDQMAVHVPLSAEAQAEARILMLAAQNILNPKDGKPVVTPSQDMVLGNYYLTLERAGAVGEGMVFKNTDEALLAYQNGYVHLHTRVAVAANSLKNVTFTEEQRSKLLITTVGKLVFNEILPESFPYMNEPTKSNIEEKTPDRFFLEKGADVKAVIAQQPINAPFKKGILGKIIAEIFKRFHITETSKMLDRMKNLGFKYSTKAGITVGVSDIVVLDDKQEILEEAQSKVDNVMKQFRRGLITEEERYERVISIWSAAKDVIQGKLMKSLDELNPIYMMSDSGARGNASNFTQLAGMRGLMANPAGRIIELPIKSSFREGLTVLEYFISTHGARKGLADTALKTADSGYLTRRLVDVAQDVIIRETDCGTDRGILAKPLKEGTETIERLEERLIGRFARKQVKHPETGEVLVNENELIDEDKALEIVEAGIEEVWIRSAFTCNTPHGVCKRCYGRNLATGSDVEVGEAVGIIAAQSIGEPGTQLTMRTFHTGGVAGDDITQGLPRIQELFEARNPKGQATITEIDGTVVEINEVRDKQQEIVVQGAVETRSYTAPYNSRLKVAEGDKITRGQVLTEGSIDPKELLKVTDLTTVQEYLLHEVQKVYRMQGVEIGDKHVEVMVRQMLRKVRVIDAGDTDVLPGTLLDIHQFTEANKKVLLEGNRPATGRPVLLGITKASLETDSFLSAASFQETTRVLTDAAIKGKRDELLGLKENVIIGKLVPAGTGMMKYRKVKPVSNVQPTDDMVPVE
T1 sequence (P20429 whole entry, further chain): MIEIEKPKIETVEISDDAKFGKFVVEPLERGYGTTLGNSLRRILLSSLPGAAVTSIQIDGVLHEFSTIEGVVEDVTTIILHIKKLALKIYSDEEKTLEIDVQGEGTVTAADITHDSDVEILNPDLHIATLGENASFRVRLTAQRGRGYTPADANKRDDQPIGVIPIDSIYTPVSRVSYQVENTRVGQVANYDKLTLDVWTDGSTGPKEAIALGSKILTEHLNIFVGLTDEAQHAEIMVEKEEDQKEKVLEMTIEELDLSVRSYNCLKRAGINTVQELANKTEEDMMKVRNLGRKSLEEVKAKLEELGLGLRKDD
T1 sequence (O35011 whole entry, further chain): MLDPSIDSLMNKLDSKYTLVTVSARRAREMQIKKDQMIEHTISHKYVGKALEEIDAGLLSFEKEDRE
T1 sequence (P37870 whole entry): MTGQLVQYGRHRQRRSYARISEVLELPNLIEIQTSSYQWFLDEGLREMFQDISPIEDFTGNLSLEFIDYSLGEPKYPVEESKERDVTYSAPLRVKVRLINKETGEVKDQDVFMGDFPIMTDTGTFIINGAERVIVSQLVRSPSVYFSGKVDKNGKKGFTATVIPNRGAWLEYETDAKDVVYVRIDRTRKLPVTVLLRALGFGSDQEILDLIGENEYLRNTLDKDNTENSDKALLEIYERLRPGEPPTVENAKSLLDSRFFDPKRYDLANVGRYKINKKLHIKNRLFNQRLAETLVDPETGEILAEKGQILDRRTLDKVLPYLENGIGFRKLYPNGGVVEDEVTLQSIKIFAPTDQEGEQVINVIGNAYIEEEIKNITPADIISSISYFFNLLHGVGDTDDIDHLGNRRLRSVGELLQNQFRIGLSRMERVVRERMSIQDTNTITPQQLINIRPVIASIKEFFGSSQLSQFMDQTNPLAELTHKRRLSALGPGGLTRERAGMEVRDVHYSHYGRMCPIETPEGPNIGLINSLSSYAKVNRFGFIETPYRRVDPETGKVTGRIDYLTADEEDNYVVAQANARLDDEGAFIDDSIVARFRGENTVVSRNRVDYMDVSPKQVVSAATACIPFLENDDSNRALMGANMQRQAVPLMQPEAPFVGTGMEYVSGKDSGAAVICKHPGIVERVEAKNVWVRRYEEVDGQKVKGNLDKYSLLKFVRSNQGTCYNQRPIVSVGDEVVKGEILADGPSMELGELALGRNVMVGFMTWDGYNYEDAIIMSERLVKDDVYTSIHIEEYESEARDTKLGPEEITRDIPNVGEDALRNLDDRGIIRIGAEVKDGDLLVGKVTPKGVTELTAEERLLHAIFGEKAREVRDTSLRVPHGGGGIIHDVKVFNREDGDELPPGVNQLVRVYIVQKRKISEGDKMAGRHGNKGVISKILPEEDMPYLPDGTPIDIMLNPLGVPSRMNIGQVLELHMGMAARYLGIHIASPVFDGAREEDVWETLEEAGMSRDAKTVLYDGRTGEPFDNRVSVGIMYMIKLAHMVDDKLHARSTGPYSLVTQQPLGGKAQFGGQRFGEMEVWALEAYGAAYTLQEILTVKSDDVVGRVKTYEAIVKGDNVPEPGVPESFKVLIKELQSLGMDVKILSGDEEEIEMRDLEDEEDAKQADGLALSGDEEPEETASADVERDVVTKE

SMILES	Ratio of the control reporter (RES): test reporter (MUG) (Dilution Number 9)	Ratio of the control reporter (RES): test reporter (MUG) (Dilution Number 10)	Ratio of the control reporter (RES): test reporter (MUG) [1]	Ratio of the control reporter (RES): test reporter (MUG) [2]	Ratio of the control reporter (RES): test reporter (MUG) (Dilution Number 2)	Ratio of the control reporter (RES): test reporter (MUG) (Dilution Number 3)	Ratio of the control reporter (RES): test reporter (MUG) (Dilution Number 4)	Ratio of the control reporter (RES): test reporter (MUG) (Dilution Number 5)	Ratio of the control reporter (RES): test reporter (MUG) (Dilution Number 6)	Ratio of the control reporter (RES): test reporter (MUG) (Dilution Number 7)	Ratio of the control reporter (RES): test reporter (MUG) (Dilution Number 8)	Reporter expression (both reporter activities) (strain PL37, FIG. 5 and FIG. 6)
CC1(C)S[C@@H]2[C@H](NC(=O)[C@H](N)c3ccccc3)C(=O)N2[C@H]1C(=O)O [Ampicillin]	1.16	1.02	1.06	–	–	–	–	–	–	–	–	–
CC[C@H](C)[C@H](N)C1=N[C@H](C(=O)N[C@@H](CC(C)C)C(=O)N[C@H](CCC(=O)O)C(=O)N[C@H](C(=O)N[C@H]2CCCCNC(=O)[C@H](CC(N)=O)NC(=O)[C@@H](CC(=O)O)NC(=O)[C@H](Cc3cnc[nH]3)NC(=O)[C@@H](Cc3ccccc3)NC(=O)[C@H]([C@@H](C)CC)NC(=O)[C@@H](CCCN)NC2=O)[C@@H](C)CC)CS1 [Bacitracin] ({Ileψ(thiazoline)Cys}-L[dE]IK[dOrn]I[dF]H[dD]N; lactam 4-C)	1.09	1.12	1.13	1.32	1.15	1.12	1.11	1.14	1.13	1.09	1.09	–
CC1(C)S[C@@H]2[C@H](NC(=O)C(C(=O)O)c3ccccc3)C(=O)N2[C@H]1C(=O)O (stereo partly drawn) [Carbenicillin]	1.00	1.05	1.07	1.37	1.49	1.59	1.63	1.66	1.64	1.60	1.03	–
CC1=C(C(=O)O)N2C(=O)[C@@H](NC(=O)[C@H](N)c3ccccc3)[C@H]2SC1 [Cephalexin]	–	–	–	1.73	1.78	1.76	1.62	1.68	1.81	–	–	–
O=C(N[C@H](CO)[C@H](O)c1ccc([N+](=O)[O-])cc1)C(Cl)Cl [Chloramphenicol]	1.14	1.13	1.17	1.10	1.22	1.27	1.40	1.90	1.51	1.20	1.16	–
CC[C@H]1OC(=O)[C@H](C)[C@@H](O[C@H]2C[C@@](C)(OC)[C@@H](O)[C@H](C)O2)[C@H](C)[C@@H](O[C@@H]2O[C@H](C)C[C@H](N(C)C)[C@H]2O)[C@](C)(O)C[C@@H](C)C(=O)[C@H](C)[C@@H](O)[C@]1(C)O [Erythromycin]	1.56	–	–	–	–	–	1.45	1.58	1.72	1.73	1.71	–
CCC[C@@H]1C[C@@H](C(=O)N[C@@H]([C@H]2O[C@H](SC)[C@H](O)[C@@H](O)[C@H]2O)[C@@H](C)O)N(C)C1 [Lincomycin]	1.02	1.03	1.08	1.09	1.20	1.29	1.61	1.91	1.40	1.08	0.99	–
CC[C@@]1([C@@H]2O[C@@H]([C@H]3O[C@@](O)(CO)[C@H](C)C[C@@H]3C)C[C@@H]2C)CC[C@H]([C@]2(C)CC[C@]3(C[C@H](O)[C@@H](C)[C@@H]([C@@H](C)[C@@H](OC)[C@H](C)C(=O)O)O3)O2)O1 [Monensin]	1.54	1.37	1.33	1.74	1.42	1.45	1.79	2.06	2.00	1.88	1.74	–
CCn1cc(C(=O)O)c(=O)c2ccc(C)nc21 [Nalidixic Acid]	1.26	1.26	1.22	1.50	1.76	1.74	0.87	0.68	0.91	1.18	1.25	–
CO[C@@H]1[C@@H](OC(N)=O)[C@@H](O)[C@H](Oc2ccc3c(O)c(NC(=O)c4ccc(O)c(CC=C(C)C)c4)c(=O)oc3c2C)OC1(C)C [Novobiocin]	1.14	1.18	1.19	1.33	1.70	1.66	1.49	1.24	0.81	0.85	1.05	–
CCn1cc(C(=O)O)c(=O)c2cc3c(cc21)OCO3 [Oxolinic Acid]	1.05	1.14	1.17	0.89	1.33	1.63	1.77	2.02	1.86	0.96	1.06	–
CC1(C)S[C@@H]2[C@H](NC(=O)Cc3ccccc3)C(=O)N2[C@H]1C(=O)O [Penicillin G]	1.01	1.01	1.07	1.77	1.72	1.70	1.76	1.81	1.80	1.84	1.64	–
CN[C@@H]1[C@H](O)[C@H](NC)[C@H]2O[C@@]3(O)C(=O)C[C@@H](C)O[C@H]3O[C@@H]2[C@H]1O [Spectinomycin]	1.10	1.10	1.13	1.30	1.23	1.21	1.14	1.16	1.14	1.08	1.10	remained unchanged
